Measurements: patent publication US12630785B2, “Liquid fabric care compositions comprising capsules” (The Procter & Gamble Company, priority 2020, dated 2026)

Columns and labels:
[1] = Capsule perfume leakage in heavy-duty liquid (HDL) detergent, headspace SPME GC/MS; format: physicochemical
Protocol: The testing of capsule leakage in liquid compositions (e.g., liquid fabric enhancer/“LFE” compositions and/or heavy-duty liquid/“HDL” detergents) is performed as follows. […] The 1 gram aliquot in the 7 ml vial is then mixed on a stirring plate for 24 h at 500 rpm, thereby ensuring that the capsules are broken by the grinding action of the stir bar against the bottom of the 7 ml vial. Optical microscopy can be used to verify that no more intact capsules remain. In case such capsules are found, the step is to repeated for an additional 24 h, or until all or almost all capsules are broken. Then, the formulation containing broken capsules is introduced into GC vials in a similar manner as for step (a). This yields total oil samples. It is to be noted that the capsule sample and the total oil sample are not analyzed on the same day, as there is a need to prepare the total oil sample after the capsule sample has been removed from storage. […] The perfume oil composition formulated herein is representative of the perfume oil composition that is present in the slurry. Then the free oil formulation is introduced into GC vials in a similar manner as for step (a). This yields reference samples, which must be used when analyzing both the capsule sample and the total oil sample. […] Two headspace vials are prepared for each sample. The sealed headspace vials are then allowed to equilibrate. […] After equilibrating, the samples are analyzed by GC/MS. […] The perfume composition is analyzed by fast GC/MS in full scan mode. Ion extraction of the specific mass for each component is obtained. The leakage is calculated as follows, separately for the capsule sample and total oil sample, where “Area” denotes the area under the chromatogram peak corresponding to the PRM of interest: Once calculated for all PRMs for both the total oil sample and the capsule sample, the corrected PRM leakage can be calculated using the following formula: Once the corrected PRM leakage has been calculated for all PRMs, the Average leakage can be found by taking the arithmetic mean of each corrected PRM leakage. […] The resulting products are stored for one week at 35° C. At the end of the storage period, samples of each product composition are analyzed for perfume leakage out of the capsule using headspace analysis. The data is reported as a percentage, determined by comparing the amount of the individual perfume raw materials found in the headspace to the amount originally provided to the capsules.

[2] = Capsule perfume leakage in liquid fabric enhancer (LFE), headspace SPME GC/MS; format: physicochemical
Protocol: The testing of capsule leakage in liquid compositions (e.g., liquid fabric enhancer/“LFE” compositions and/or heavy-duty liquid/“HDL” detergents) is performed as follows. […] The 1 gram aliquot in the 7 ml vial is then mixed on a stirring plate for 24 h at 500 rpm, thereby ensuring that the capsules are broken by the grinding action of the stir bar against the bottom of the 7 ml vial. Optical microscopy can be used to verify that no more intact capsules remain. In case such capsules are found, the step is to repeated for an additional 24 h, or until all or almost all capsules are broken. Then, the formulation containing broken capsules is introduced into GC vials in a similar manner as for step (a). This yields total oil samples. It is to be noted that the capsule sample and the total oil sample are not analyzed on the same day, as there is a need to prepare the total oil sample after the capsule sample has been removed from storage. […] The perfume oil composition formulated herein is representative of the perfume oil composition that is present in the slurry. Then the free oil formulation is introduced into GC vials in a similar manner as for step (a). This yields reference samples, which must be used when analyzing both the capsule sample and the total oil sample. […] Two headspace vials are prepared for each sample. The sealed headspace vials are then allowed to equilibrate. Samples reach equilibrium after 3 hours at room temperature, but can be left to sit longer without detriment or change to the results, up until 24 hours after sealing the headspace vial. After equilibrating, the samples are analyzed by GC/MS. […] The perfume composition is analyzed by fast GC/MS in full scan mode. Ion extraction of the specific mass for each component is obtained. The leakage is calculated as follows, separately for the capsule sample and total oil sample, where “Area” denotes the area under the chromatogram peak corresponding to the PRM of interest: Once calculated for all PRMs for both the total oil sample and the capsule sample, the corrected PRM leakage can be calculated using the following formula: Once the corrected PRM leakage has been calculated for all PRMs, the Average leakage can be found by taking the arithmetic mean of each corrected PRM leakage. […] The resulting products are stored for one week at 35° C. At the end of the storage period, samples of each product composition are analyzed for perfume leakage out of the capsule using headspace analysis. The data is reported as a percentage, determined by comparing the amount of the individual perfume raw materials found in the headspace to the amount originally provided to the capsules.

[3] = PRM of Perfume 1 out of Comparative Example 5-1 capsules (polyacrylate shell)
[4] = PRM of Perfume 1 out of Comparative example 5-2 capsules (per EP2500087B1)
[5] = PRM of Perfume 1 out of Comparative example 5-3 capsules (per WO2010013250A2)
[6] = PRM of Perfume 1 out of Example 5-1 capsules (silica shell)
[7] = PRM of Perfume 1 out of Comparative Example 4-1 capsules (polyacrylate shell), LFE Composition 1, 0.25 wt % perfume
[8] = PRM of Perfume 1 out of Comparative Example 6-1 capsules (no second shell component), LFE Composition 1
[9] = PRM of Perfume 1 out of Comparative Example 10-1 capsules (per EP2500087B1), LFE Composition 1
[10] = PRM of Perfume 1 out of Comparative Example 10-2 capsules (per WO2010013250A2, with IPM), LFE Composition 1
[11] = PRM of Perfume 1 out of Example 2, Sample A capsules, LFE Composition 1 (Ester Quat 1)
[12] = PRM of Perfume 1 out of Example 2, Sample A capsules, LFE Composition 2 (Ester Quat 2)
[13] = PRM of Perfume 1 out of Example 2, Sample A capsules, LFE Composition 3 (Ester Quat 3)
[14] = PRM of Perfume 1 out of Example 4-1 capsules (silica shell), LFE Composition 1, 0.25 wt % perfume
[15] = PRM of Perfume 1 out of Example 6-1 capsules (w/ second shell component), LFE Composition 1
[16] = PRM of Perfume 1 out of Example 10-1 capsules (Sample F, Perfume 1/IPM 40/60), LFE Composition 1
[17] = PRM of Perfume 1 out of Example 10-2 capsules (Sample A), LFE Composition 1

Structure (SMILES)	Leakage (as %) after 1 week at 35° C. [1, 3] [%]	Leakage (as %) after 1 week at 35° C. [1, 4] [%]	Leakage (as %) after 1 week at 35° C. [1, 5] [%]	Leakage (as %) after 1 week at 35° C. [1, 6] [%]	Leakage (as %) after 1 week at 35° C. [2, 7] [%]	Leakage (as %) after 1 week at 35° C. [2, 8] [%]	Leakage (as %) after 1 week at 35° C. [2, 9] [%]	Leakage (as %) after 1 week at 35° C. [2, 10] [%]	Leakage (as %) after 1 week at 35° C. [2, 11] [%]	Leakage (as %) after 1 week at 35° C. [2, 12] [%]	Leakage (as %) after 1 week at 35° C. [2, 13] [%]	Leakage (as %) after 1 week at 35° C. [2, 14] [%]	Leakage (as %) after 1 week at 35° C. [2, 15] [%]	Leakage (as %) after 1 week at 35° C. [2, 16] [%]	Leakage (as %) after 1 week at 35° C. [2, 17] [%]	Leakage (as %) after 1 week at 35° C. ([2]; PRM of Perfume 2 out of Capsule Sample C, LFE Composition 1) [%]	Leakage (as %) after 1 week at 35° C. ([2]; PRM of Perfume 3 out of Capsule Sample D, LFE Composition 1) [%]	Leakage (as %) after 1 week at 35° C. ([2]; PRM of Perfume 4 out of Comparative Example 9-1 capsules (per EP3078415A), LFE Composition 1) [%]	Leakage (as %) after 1 week at 35° C. ([2]; PRM of Perfume 4 out of Comparative Example 9-2 capsules (per EP3078415A, additional TEOS), LFE Composition 1) [%]	Leakage (as %) after 1 week at 35° C. ([2]; PRM of Perfume 4 out of Example 9-1 capsules (Sample E), LFE Composition 1) [%]
CCC(C)CCCC(C)(C)O (centres unmarked) [Tetrahydro myrcenol]	3	107	105	26	10	86	88	95	2.4	1.2	1.2	8	7	17	7	–	–	–	–	–
CC(=O)OC1CC2CC1C1CC=CC21 (centres unmarked) [Verdyl acetate]	1	107	104	26	4	20	89	94	1.2	0.8	1.2	5	7	17	7	6	8	67	72	13
CC12CCC(CC1)C(C)(C)O2 [Eucalyptol]	1	104	101	28	5	72	97	96	2.1	1.3	2.0	7	8	26	8	–	–	–	–	–
CC(=O)OC1CCC(C(C)(C)C)CC1 (centres unmarked) [(4-tert-butylcyclohexyl) acetate]	0	108	100	27	3	4	85	91	0.1	0.1	0.7	6	7	15	7	–	–	–	–	–
